Where “and” joins values, the source holds several entries; their conditions need not be identical. Equal values may be shown once. Read-outs that look alike come from different tables or passages of the source.
Key:
[1] = test system: prothrombin fragments 1+2; conditions: dose-ranging clinical trial; highest dose regimen; cited from earlier work
[2] = Level of impurities in dependency on pH and storage time (HPLC), Example 8; assay type: physicochemical; conditions: 40° C./75% RH
Experimental: The appropriate pH value was adjusted by using sodium hydroxide solution (1 M sodium hydroxide) or diluted hydrochloric acid (1 M hydrochloric acid). The prepared vials were autoclaved one time and were stored at 40° C. and 75% RH (relative humidity).

[3] = Level of impurities in dependency on pH and repeated autoclaving (HPLC), Example 6; assay type: physicochemical
Experimental: The appropriate pH value was adjusted by using sodium hydroxide solution (1 M sodium hydroxide) or diluted hydrochloric acid (1 M hydrochloric acid). […] HP Zorbax SB-C18, 3.5 μm • Column material: stainless steel • Column length: 150 mm • Column internal diameter: 4.6 mm • Equilibration of the column: Column must be rinsed with mobile phase B (% B=25) for at least 60 minutes at a flow rate of 1 mL/min prior to sample injection. • Storage of the column: Column can be stored in acetonitrile/water=20/80 (v/v) Mobile Phase A […] The mobile phase was filtered through a 1.5 μm filter. Typically, add 500 mL of mobile phase A to 500 mL of acetonitrile. Mix and degas. [table] Procedure • Flow rate: 1 mL/min • Injection volume: 40 μl • Auto sampler temperature: Set autosampler temperature at +12° C. • Column temperature: […]

[4] = Level of impurities in dependency on Otamixaban concentration and autoclaving (HPLC), Example 7; assay type: physicochemical; conditions: autoclaving
Source text: The appropriate pH value was adjusted by using sodium hydroxide solution (1 M sodium hydroxide) or diluted hydrochloric acid (1 M hydrochloric acid).

acute coronary syndrome = conditions: humans; cited from earlier work
factor Xa = molecular target: T1, factor Xa (Homo sapiens, UniProt P00742); conditions: patients with stable coronary artery disease; cited from earlier work
T1 construct: host or cells: blood of patients (in vivo, clinical trial)

models of thrombosis [5] = conditions: rodent; cited from earlier work
models of thrombosis [6] = conditions: porcine; cited from earlier work
models of thrombosis [7] = conditions: canine; cited from earlier work
[8] = pH 2.5, number of autoclaving 0
[9] = pH 2.5, number of autoclaving 1
[10] = pH 3.2, number of autoclaving 0
[11] = pH 3.2, number of autoclaving 1
[12] = pH 3.2, number of autoclaving 3
[13] = pH 3.5, number of autoclaving 0
[14] = pH 3.5, number of autoclaving 1
[15] = pH 3.7, number of autoclaving 0
[16] = pH 3.7, number of autoclaving 1
[17] = pH 3.7, number of autoclaving 3
[18] = pH 4.0, number of autoclaving 0
[19] = pH 4.0, number of autoclaving 1
[20] = pH 4.2, number of autoclaving 0
[21] = pH 4.5, number of autoclaving 0
[22] = pH 4.5, number of autoclaving 1
[23] = pH 4.7, number of autoclaving 0
[24] = pH 4.7, number of autoclaving 2

T1 sequence (P00742 235-488 limits assumed): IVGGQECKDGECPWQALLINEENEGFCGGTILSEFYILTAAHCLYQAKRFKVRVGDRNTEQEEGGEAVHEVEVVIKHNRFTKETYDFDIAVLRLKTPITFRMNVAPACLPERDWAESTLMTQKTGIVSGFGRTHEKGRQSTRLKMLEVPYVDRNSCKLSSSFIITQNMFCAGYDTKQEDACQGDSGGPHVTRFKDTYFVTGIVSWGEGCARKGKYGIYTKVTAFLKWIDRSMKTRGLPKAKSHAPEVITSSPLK
T1 sequence (P00742 41-179 partner limits assumed): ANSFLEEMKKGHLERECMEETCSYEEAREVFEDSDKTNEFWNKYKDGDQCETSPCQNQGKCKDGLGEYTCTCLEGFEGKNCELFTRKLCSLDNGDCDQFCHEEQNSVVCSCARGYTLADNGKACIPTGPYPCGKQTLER

Structure (SMILES): COC(=O)[C@H](Cc1cccc(C(=N)N)c1)[C@@H](C)NC(=O)c1ccc(-c2cc[n+]([O-])cc2)cc1 (mixture of isomers) [Otamixaban, Methyl (2R,3R)-2-{3-[amino(imino)methyl]benzyl}-3-{[4-(1-oxidopyridin-4-yl)benzoyl]amino}butanoate]
- reduction of prothrombin fragments 1+2 versus unfractionated heparin [1]: reduced prothrombin fragments 1+2 significantly more than unfractionated heparin
- Increase of Formula II (carbamimidoyl-benzyl butyric acid) ([2]; pH 2.5, storage time 0 months): 0.33%
- Increase of Formula III (carbamoyl-benzyl butyric acid methyl ester) ([2]; pH 2.5, storage time 0 months): 0.71%
- Increase of Formula III (carbamoyl-benzyl butyric acid methyl ester) ([2]; pH 2.5, storage time 1 months): 0.77%
- Increase of Formula III (carbamoyl-benzyl butyric acid methyl ester) ([2]; pH 2.5, storage time 3 months): 0.86%
- Increase of Formula II (carbamimidoyl-benzyl butyric acid) ([2]; pH 2.5, storage time 6 months): 7.10%
- Increase of Formula III (carbamoyl-benzyl butyric acid methyl ester) ([2]; pH 2.5, storage time 6 months): 0.98%
- Increase of Formula II (carbamimidoyl-benzyl butyric acid) ([2]; pH 3.0, storage time 0 months): 0.18%
- Increase of Formula III (carbamoyl-benzyl butyric acid methyl ester) ([2]; pH 3.0, storage time 0 months): 0.74%
- Increase of Formula II (carbamimidoyl-benzyl butyric acid) ([2]; pH 3.0, storage time 1 months): 0.58%
- Increase of Formula III (carbamoyl-benzyl butyric acid methyl ester) ([2]; pH 3.0, storage time 1 months): 0.82%
- Increase of Formula III (carbamoyl-benzyl butyric acid methyl ester) ([2]; pH 3.0, storage time 3 months): 0.96%
- Increase of Formula II (carbamimidoyl-benzyl butyric acid) ([2]; pH 3.2, storage time 0 months): 0.15%
- Increase of Formula III (carbamoyl-benzyl butyric acid methyl ester) ([2]; pH 3.2, storage time 0 months): 0.76%
- Increase of Formula II (carbamimidoyl-benzyl butyric acid) ([2]; pH 3.2, storage time 1 months): 0.41%
- Increase of Formula III (carbamoyl-benzyl butyric acid methyl ester) ([2]; pH 3.2, storage time 1 months): 0.85%
- Increase of Formula II (carbamimidoyl-benzyl butyric acid) ([2]; pH 3.2, storage time 3 months): 0.93%
- Increase of Formula III (carbamoyl-benzyl butyric acid methyl ester) ([2]; pH 3.2, storage time 3 months): 1.00%
- Increase of Formula II (carbamimidoyl-benzyl butyric acid) ([2]; pH 3.5, storage time 0 months): 0.12%
- Increase of Formula III (carbamoyl-benzyl butyric acid methyl ester) ([2]; pH 3.5, storage time 0 months): 0.81%
- Increase of Formula II (carbamimidoyl-benzyl butyric acid) ([2]; pH 3.5, storage time 1 months): 0.27%
- Increase of Formula III (carbamoyl-benzyl butyric acid methyl ester) ([2]; pH 3.5, storage time 1 months): 0.91%
- Increase of Formula II (carbamimidoyl-benzyl butyric acid) ([2]; pH 3.5, storage time 3 months): 0.55%
- Increase of Formula II (carbamimidoyl-benzyl butyric acid) ([2]; pH 3.5, storage time 6 months): 0.99%
- Increase of Formula II (carbamimidoyl-benzyl butyric acid) ([2]; pH 3.7, storage time 0 months): 0.11%
- Increase of Formula III (carbamoyl-benzyl butyric acid methyl ester) ([2]; pH 3.7, storage time 0 months): 0.87%
- Increase of Formula II (carbamimidoyl-benzyl butyric acid) ([2]; pH 3.7, storage time 1 months): 0.22%
- Increase of Formula III (carbamoyl-benzyl butyric acid methyl ester) ([2]; pH 3.7, storage time 1 months): 0.96%
- Increase of Formula II (carbamimidoyl-benzyl butyric acid) ([2]; pH 3.7, storage time 3 months): 0.42%
- Increase of Formula II (carbamimidoyl-benzyl butyric acid) ([2]; pH 3.7, storage time 6 months): 0.72%
- Increase of Formula II (carbamimidoyl-benzyl butyric acid) ([2]; pH 4.0, storage time 0 months): 0.12%
- Increase of Formula III (carbamoyl-benzyl butyric acid methyl ester) ([2]; pH 4.0, storage time 0 months): 0.95%
- Increase of Formula II (carbamimidoyl-benzyl butyric acid) ([2]; pH 4.0, storage time 1 months): 0.18%
- Increase of Formula II (carbamimidoyl-benzyl butyric acid) ([2]; pH 4.0, storage time 3 months): 0.32%
- Increase of Formula II (carbamimidoyl-benzyl butyric acid) ([2]; pH 4.0, storage time 6 months): 0.52%
- Increase of Formula II (carbamimidoyl-benzyl butyric acid) ([2]; pH 4.2, storage time 0 months): 0.13%
- Increase of Formula II (carbamimidoyl-benzyl butyric acid) ([2]; pH 4.2, storage time 1 months): 0.18%
- Increase of Formula III (carbamoyl-benzyl butyric acid methyl ester) ([2]; pH 4.2, storage time 1 months): 1.20%
- Increase of Formula II (carbamimidoyl-benzyl butyric acid) ([2]; pH 4.2, storage time 3 months): 0.27%
- Increase of Formula II (carbamimidoyl-benzyl butyric acid) ([2]; pH 4.2, storage time 6 months): 0.43%
- Increase of Formula II (carbamimidoyl-benzyl butyric acid) ([2]; pH 4.5, storage time 0 months): 0.15%
- Increase of Formula III (carbamoyl-benzyl butyric acid methyl ester) ([2]; pH 4.5, storage time 0 months): 1.40%
- Increase of Formula II (carbamimidoyl-benzyl butyric acid) ([2]; pH 4.5, storage time 1 months): 0.20%
- Increase of Formula II (carbamimidoyl-benzyl butyric acid) ([2]; pH 4.5, storage time 3 months): 0.30%
- Increase of Formula II (carbamimidoyl-benzyl butyric acid) ([2]; pH 4.5, storage time 6 months): 0.44%
- Increase of Formula II (carbamimidoyl-benzyl butyric acid) ([2]; pH 4.7, storage time 0 months): 0.20%
- Increase of Formula II (carbamimidoyl-benzyl butyric acid) ([2]; pH 4.7, storage time 1 months): 0.25%
- Increase of Formula II (carbamimidoyl-benzyl butyric acid) ([2]; pH 4.7, storage time 3 months): 0.36%
- Increase of Formula II (carbamimidoyl-benzyl butyric acid) ([2]; pH 4.7, storage time 6 months): 0.52%
- Increase of Formula II (carbamimidoyl-benzyl butyric acid) [3, 8]: 0.10%
- Increase of Formula III (carbamoyl-benzyl butyric acid methyl ester) [3, 8]: 0.39%
- Increase of Formula II (carbamimidoyl-benzyl butyric acid) [3, 9]: 0.33%
- Increase of Formula III (carbamoyl-benzyl butyric acid methyl ester) [3, 9]: 0.71%
- Increase of Formula II (carbamimidoyl-benzyl butyric acid) ([3]; pH 2.5, number of autoclaving 2): 0.56%
- Increase of Formula III (carbamoyl-benzyl butyric acid methyl ester) ([3]; pH 3.0, number of autoclaving 0): 0.39%
- Increase of Formula III (carbamoyl-benzyl butyric acid methyl ester) ([3]; pH 3.0, number of autoclaving 1): 0.74%
- Increase of Formula II (carbamimidoyl-benzyl butyric acid) [3, 10]: 0.08%
- Increase of Formula III (carbamoyl-benzyl butyric acid methyl ester) [3, 10]: 0.39%
- Increase of Formula II (carbamimidoyl-benzyl butyric acid) [3, 11]: 0.15%
- Increase of Formula III (carbamoyl-benzyl butyric acid methyl ester) [3, 11]: 0.76%
- Increase of Formula II (carbamimidoyl-benzyl butyric acid) ([3]; pH 3.2, number of autoclaving 2): 0.21%
- Increase of Formula II (carbamimidoyl-benzyl butyric acid) [3, 12]: 0.27%
- Increase of Formula III (carbamoyl-benzyl butyric acid methyl ester) [3, 12]: 1.50%
- Increase of Formula II (carbamimidoyl-benzyl butyric acid) [3, 13]: 0.08%
- Increase of Formula III (carbamoyl-benzyl butyric acid methyl ester) [3, 13]: 0.39%
- Increase of Formula II (carbamimidoyl-benzyl butyric acid) [3, 14]: 0.12%
- Increase of Formula III (carbamoyl-benzyl butyric acid methyl ester) [3, 14]: 0.81%
- Increase of Formula II (carbamimidoyl-benzyl butyric acid) ([3]; pH 3.5, number of autoclaving 2): 0.17%
- Increase of Formula II (carbamimidoyl-benzyl butyric acid) ([3]; pH 3.5, number of autoclaving 3): 0.21%
- Increase of Formula II (carbamimidoyl-benzyl butyric acid) [3, 15]: 0.08%
- Increase of Formula III (carbamoyl-benzyl butyric acid methyl ester) [3, 15]: 0.39%
- Increase of Formula II (carbamimidoyl-benzyl butyric acid) [3, 16]: 0.11% and 0.12%
- Increase of Formula III (carbamoyl-benzyl butyric acid methyl ester) [3, 16]: 0.87% and 0.84%
- Increase of Formula II (carbamimidoyl-benzyl butyric acid) ([3]; pH 3.7, number of autoclaving 2): 0.16%
- Increase of Formula II (carbamimidoyl-benzyl butyric acid) [3, 17]: 0.20% and 0.19%
- Increase of Formula III (carbamoyl-benzyl butyric acid methyl ester) [3, 17]: 1.80%
- Increase of Formula II (carbamimidoyl-benzyl butyric acid) [3, 18]: 0.08%
- Increase of Formula III (carbamoyl-benzyl butyric acid methyl ester) [3, 18]: 0.39%
- Increase of Formula II (carbamimidoyl-benzyl butyric acid) [3, 19]: 0.12%
- Increase of Formula III (carbamoyl-benzyl butyric acid methyl ester) [3, 19]: 0.95%
- Increase of Formula II (carbamimidoyl-benzyl butyric acid) ([3]; pH 4.0, number of autoclaving 2): 0.16%
- Increase of Formula II (carbamimidoyl-benzyl butyric acid) ([3]; pH 4.0, number of autoclaving 3): 0.19%
- Increase of Formula II (carbamimidoyl-benzyl butyric acid) [3, 20]: 0.07%
- Increase of Formula III (carbamoyl-benzyl butyric acid methyl ester) [3, 20]: 0.39%
- Increase of Formula II (carbamimidoyl-benzyl butyric acid) ([3]; pH 4.2, number of autoclaving 1): 0.13%
- Increase of Formula II (carbamimidoyl-benzyl butyric acid) ([3]; pH 4.2, number of autoclaving 2): 0.18%
- Increase of Formula II (carbamimidoyl-benzyl butyric acid) ([3]; pH 4.2, number of autoclaving 3): 0.22%
- Increase of Formula II (carbamimidoyl-benzyl butyric acid) [3, 21]: 0.08%
- Increase of Formula III (carbamoyl-benzyl butyric acid methyl ester) [3, 21]: 0.39%
- Increase of Formula II (carbamimidoyl-benzyl butyric acid) [3, 22]: 0.15%
- Increase of Formula III (carbamoyl-benzyl butyric acid methyl ester) [3, 22]: 1.40%
- Increase of Formula II (carbamimidoyl-benzyl butyric acid) ([3]; pH 4.5, number of autoclaving 2): 0.24%
- Increase of Formula II (carbamimidoyl-benzyl butyric acid) ([3]; pH 4.5, number of autoclaving 3): 0.30%
- Increase of Formula II (carbamimidoyl-benzyl butyric acid) [3, 23]: 0.08%
- Increase of Formula III (carbamoyl-benzyl butyric acid methyl ester) [3, 23]: 0.39%
- Increase of Formula II (carbamimidoyl-benzyl butyric acid) ([3]; pH 4.7, number of autoclaving 1): 0.20%
- Increase of Formula II (carbamimidoyl-benzyl butyric acid) [3, 24]: 0.32%
- Increase of Formula III (carbamoyl-benzyl butyric acid methyl ester) [3, 24]: 3.20%
- Increase of Formula II (carbamimidoyl-benzyl butyric acid) ([3]; pH 4.7, number of autoclaving 3): 0.43%
- dependence of Formula III level on Otamixaban concentration or vial volume [4]: independent from the concentration of Otamixaban or vial volume
- clinical findings: efficacy, safety, tolerability (acute coronary syndrome): efficacious, safe and well tolerated
- factor Xa inhibition in patients (factor Xa): dose-dependent, rapid direct factor Xa inhibition
- efficacy in models of thrombosis (models of thrombosis [5]): highly efficacious
- efficacy in models of thrombosis (models of thrombosis [6]): highly efficacious
- efficacy in models of thrombosis (models of thrombosis [7]): highly efficacious

— patent publication US9993464B2 (SANOFI, priority 2011, dated 2018)
